Source: article PMC8100298, “Histone deacetylase inhibitor resminostat in combination with sorafenib counteracts platelet-mediated pro-tumoral effects in hepatocellular carcinoma” (Scientific Reports, 2021)
Like-named read-outs stand apart in the source and are kept apart here.

Key:
Assay in all cases: Efficacy screening assay
Assay type in all cases: cell-based
SW620 = details: SW620, colon
Protocol: (§1) labelled fluorogenic peptide substrates: fluorogenic peptide from p53 residues 379-382 (RHKK(Ac)AMC) for HDAC1, 2, 3, 6, 10, 11; fluorogenic HDAC Class IIa Substrate (Trifluoro acetyl Lysine, Ac-LGK(TFA)-AMC) for HDAC 4, 5, 7, 9; and fluorogenic peptide from p53 residues 379-382 (RHK(Ac)K(Ac)AMC) for HDAC8. 1 mg/mL BSA and DMSO was added to the assay buffer (50 mM Tris-HCl, pH 8.0; 137 mM NaCl; 2.7 mM KCl; 1 mM MgCl2) prior to use. In a two-step reaction, the substrate with the acetylated lysine side chain was incubated for with a sample containing HDAC activity to p roduce the deacetylated products: 1 h at 30°C for HDAC1, 2, 3 and 6; 30 min at RT for HDAC4, 5, 7 and 9; 2 h at 30°C for HDAC8, 10 and 11. In a second step, the deacetylated products were digested by the addition of developer for 1 h at 30°C to produce the fluorescent signal proportional to the amount of deacetylated substrates and the fluorescence was measured using an Envision plate reader at 355 nm (excitation) and 460 nm (emission). A kinetic measurement was performed for ~1 h with 5 min intervals and d ata from the final time point were analysed. IC50 values and curve fits were obtained using GraphPad Softwar e.
(§2) The experiment was performed by Oncolead GmbH & Co. KG (Karlsfeld , Germany), based on a standardized screening procedure . Cell lines were purchased directly from the ATCC, NCI and DSMZ cell line c ollections. Cells used for the study had undergone less than 20 passages. To ensure the absence of potential contamination and wrong assignment, all cell lines were tested using a whole genome assay (Agilent, USA). All cell lines were grown as recommended by the suppliers and with addition of 100 U/mL penicillin G and 100 µg/mL; streptomycin. Cell growth and treatments were performed in Nunclon D 96 -well plates (NUNC, Germany). The optimal seeding density for each cell line was determined to ensure exponential growth for the duration of the experiment. All cells growing without anti-cancer agents were sub-conﬂuent by the end of the treatment, as determined by visual inspection.
(§3) After an initial 24 h pre-growth period, the compounds were added. The vehicle concentration […]
(§4) was 0.1% DMSO. After incubation at 37°C for 72 h, the culture medium was aspirated, and the cells were precipitated by the addition of 10% trichloroacetic acid (Sigma-Aldrich, Missouri, US). After overnight incubation at 4°C, the plates were washed three times with deionized water. The precipitates were then stained with SRB (0.4% wt/v sulforhodamine B solution in 1% acetic acid, Sigma-Aldrich, Missouri, US). Afterwards, the plates were washed six times with 1% acetic acid to remove unbound stain. After drying the plates at room temperature, the bound SRB was solubilized with 10 mM Tris base and the optical density was measured at 520 nm using a Victor2 plate reader (Perkin Elmer, Germany). Blank OD values were subtracted from mean OD values for each concentration. The nonlinear curve ﬁtting and EC50 calculations were per formed using XLﬁt and algorithm “205” (ID Business […]
(§5) For cell-based and other in vitro assays, data are presented as data mean ± SD of at least […]
(§6) For the orthotopic mouse model, data are presented as mean + SEM. For statistical analysis, one-way ANOVA and multiple comparison (Dunnett) was performed for compound treatments compared to vehicle control. The adjusted p-values with 95% confidence interval were reported as significant. For comparison of EC50 values in Figure 1F, one-way ANOVA with multiple comparison testing (Tukey) was performed. Multiplicity adjusted p -values for the EC50 with sorafenib versus resminostat for each cell line and comparison between cell lines for sorafenib are presented (95% confidence interval for significance testing). For comparison of EC50 data in Figure 2B, one-way ANOVA with multiple comparison testing (Tukey) was performed. Multiplicity adjusted p-values with 95% confidence interval was applied. For the […]

U87MG = details: 72 h, brain
Protocol: as §1, §2, §3, §4, §5, §6

5637 (HTB-9) = system: 5637 (HTB-9)
Protocol: as §1, §2, §3, §4, §5, §6

COLO205 = details: COLO205, colon
Protocol: as §1, §2, §3, §4, §5, §6

HepG2 = details: Homo sapiens, HepG2, 72 h, HEPG2, liver
Protocol: as §1, §2, §3, §4, §5, §6

SKOV3 = details: SKOV3, ovary
Protocol: as §1, §2, §3, §4, §5, §6

SKMEL28 = details: Homo sapiens, SK-MEL-28, SKMEL28, skin, 72 h
Protocol: as §1, §2, §3, §4, §5, §6

HEK293 = details: HEK293, kidney
Protocol: as §1, §2, §3, §4, §5, §6

DLD1 = details: Homo sapiens, DLD-1, DLD1, colon, 72 h
Protocol: as §1, §2, §3, §4, §5, §6

TE671 = details: TE671, muscle
Protocol: as §1, §2, §3, §4, §5, §6

SF295 = details: SF295, brain
Protocol: as §1, §2, §3, §4, §5, §6

DU145 = details: DU145, prostate
Protocol: as §1, §2, §3, §4, §5, §6

[1] = log of EC50, negative, read-out: log(EC50) (converted)

CN(C)Cc1ccc(S(=O)(=O)n2ccc(/C=C/C(=O)NO)c2)cc1 [resminostat, Resminostat]
EC50 (SW620; Homo sapiens, SW-620, 72 h, log of EC50, negative, read-out: log(EC50) (converted)): 1.29 µM
EC50 (SW620; Homo sapiens, SW-620, 72 h, read-out: EC50): 1.27 µM
EC50 (SW620; 72 h, read-out: EC50): 1.27 µM
EC50 (U87MG; Homo sapiens, U-87 MG, log of EC50, negative, read-out: log(EC50) (converted)): 5.5 µM
EC50 (U87MG; Homo sapiens, U-87 MG, read-out: EC50): 5.55 µM
EC50 (U87MG; read-out: EC50): 5.55 µM
EC50 (5637 (HTB-9); 72 h, bladder, log of EC50, negative, read-out: log(EC50) (converted)): 1.12 µM
EC50 (5637 (HTB-9); 72 h, bladder, read-out: EC50): 1.13 µM
EC50 (5637 (HTB-9); bladder, 72 h, read-out: EC50): 1.13 µM
EC50 (COLO205; 72 h, read-out: EC50): 2.54 µM
EC50 (COLO205; Homo sapiens, COLO 205, 72 h, log of EC50, negative, read-out: log(EC50) (converted)): 2.57 µM
EC50 (COLO205; Homo sapiens, COLO 205, 72 h, read-out: EC50): 2.54 µM
EC50 (HepG2; [1]): 0.501 µM
EC50 (HepG2; read-out: EC50): 0.504 µM
EC50 (SKOV3; Homo sapiens, SK-OV-3, 72 h, log of EC50, negative, read-out: log(EC50) (converted)): 3.72 µM
EC50 (SKOV3; Homo sapiens, SK-OV-3, 72 h, read-out: EC50): 3.69 µM
EC50 (SKOV3; 72 h, read-out: EC50): 3.69 µM
EC50 (SKMEL28; [1]): 3.31 µM
EC50 (SKMEL28; read-out: EC50): 3.34 µM
EC50 (HEK293; 72 h, read-out: EC50): 4.76 µM
EC50 (HEK293; Homo sapiens, HEK293, 72 h, log of EC50, negative, read-out: log(EC50) (converted)): 4.79 µM
EC50 (HEK293; Homo sapiens, HEK293, 72 h, read-out: EC50): 4.76 µM
EC50 (DLD1; [1]): 1.95 µM
EC50 (DLD1; read-out: EC50): 1.95 µM
EC50 (TE671; Homo sapiens, TE-671, 72 h, log of EC50, negative, read-out: log(EC50) (converted)): 1.35 µM
EC50 (TE671; Homo sapiens, TE-671, 72 h, read-out: EC50): 1.34 µM
EC50 (TE671; 72 h, read-out: EC50): 1.34 µM
EC50 (SF295; Homo sapiens, SF-295, 72 h, log of EC50, negative, read-out: log(EC50) (converted)): 2.51 µM
EC50 (SF295; Homo sapiens, SF-295, 72 h, read-out: EC50): 2.53 µM
EC50 (SF295; 72 h, read-out: EC50): 2.53 µM
EC50 (DU145; 72 h, read-out: EC50): 1.38 µM
EC50 (DU145; Homo sapiens, DU-145, 72 h, log of EC50, negative, read-out: log(EC50) (converted)): 1.38 µM
EC50 (DU145; Homo sapiens, DU-145, 72 h, read-out: EC50): 1.38 µM
